Columns and labels:
IFN-alpha = assay: Chemical modification ranges, modified RNA transfected in PBMC, IFN-alpha ELISA; assay type: cell-based, human
Protocol: 960 ng of G-CSF mRNA modified with 5-methylcytosine (5mC) and pseudouridine (pseudoU) or unmodified G-CSF mRNA was transfected with 0.8 uL of Lipofectamine 2000 into peripheral blood mononuclear cells (PBMC) from three normal blood donors (D1, D2, D3). […] The supernatant was harvested and run by ELISA 22 hours after transfection to determine the protein expression. The expression of IFN-alpha and TNF-alpha may be a secondary effect from the transfection of the G-CSF mRNA.

[1] = tested on: Human primary foreskin fibroblasts (BJ fibroblasts); assay: Innate immune response transcripts in BJ fibroblasts, single transfection (qPCR); assay type: cell-based; conditions: 250 ng, 18 hours
Text: Control samples of poly I:C.

TNF-alpha = assay: Chemical modification ranges, modified RNA transfected in PBMC, TNF-alpha ELISA; assay type: cell-based, human
Protocol: (§1) The supernatant was harvested and run by ELISA 22 hours after transfection to determine the protein expression.

[2] = tested on: peripheral blood mononuclear cells (PBMC); assay: In vitro PBMC study, percent modification: IFN-alpha and TNF-alpha by ELISA, PC ratio; assay type: cell-based, human
Protocol: as §1

[3] = Stability of modified RNA on storage (gel electrophoresis); assay type: physicochemical
Protocol: Stability experiments were conducted to obtain a better understanding of storage conditions to retain the integrity of modified RNA. […] 40° C. 37° C. 25° C. 4° C. or −20° C. After the mRNA had been stored for 0 hours, 2 hours, 6 hours, 24 hours, 48 hours, 5 days and 14 days, the mRNA was analyzed by gel electrophoresis using a Bio-Rad EXPERION™ system. The modified, unmodified and lipoplexed G-CSF mRNA was also stored in RNASTABLE® (Biomatrica, Inc. San Diego, Calif.) at 40° C. or water at −80° C. or 40° C. for 35 days before being analyzed by gel electrophoresis.
mRNA samples stored at 4° C. 25° C. and 37° C. were stored in 1×TE buffer or the formulation buffer (150 mM sodium chloride, 2 mM calcium chloride, 2 mM phosphate, 0.5 mM EDTA at a pH of 6.5). The mRNA stored at 4° C. was stable to at least 60 days in both the TE and formulation buffer. At 25° C. the mRNA in formulation buffer was stable out to 14 days and the TE buffer was stable out to at least 6 days. Storage of mRNA in the formulation buffer at 37° C. was stable to 6 days compared to the TE buffer which was stable only until 4 days.

[4] = Split dose study IM, serum human EPO, product per unit drug and dose splitting factor; assay type: in vivo, mice
Protocol: The dosing vehicle (F. buffer) consisted of 150 mM NaCl, 2 mM CaCl2, 2 mM Na^+-phosphate (1.4 mM monobasic sodium phosphate; 0.6 mM dibasic sodium phosphate), and 0.5 mM EDTA, pH 6.5. The pH was adjusted using sodium hydroxide and the final solution was filter sterilized.
Animals (n=5) were injected IM (intramuscular) for the single unit dose of 100 ug. For multi-dosing, two schedules were used, 3 doses of 100 ug and 6 doses of 100 ug. For the split dosing scheme, two schedules were used, 3 doses at 33.3 ug and 6 doses of 16.5 ug mmRNA. Control dosing involved use of buffer only at 6 doses. […] Blood and muscle tissue were evaluated 13 hrs post injection.
Human EPO protein was measured in mouse serum 13 h post I.M. single, multi- or split dosing of the EPO mmRNA in buffer. Seven groups of mice (n=5 mice per group) were treated and evaluated.
The splitting factor is defined as the product per unit drug divided by the single dose product per unit drug (PUD) For example for treatment group 2 the value 0.28 or product (EPO) per unit drug (mmRNA) is divided by the single dose product per unit drug of 0.14. The result is 2. Likewise, for treatment group 4, the value 1.1 or product (EPO) per unit drug (mmRNA) is divided by the single dose product per unit drug of 0.14. The result is 7.9. Consequently, the dose splitting factor (DSF) may be used as an indicator of the efficacy of a split dose regimen. For any single administration of a total daily dose, the DSF should be equal to 1. Therefore any DSF greater than this value in a split dose regimen is an indication of increased efficacy.

HEK293 cells = assay: In vitro expression of VEGF modified mRNA (ELISA); assay type: cell-based
[5] = group 1: 1 × 100 ug, total dose 100 ug
[6] = group 2: 3 × 100 ug, total dose 300 ug
[7] = group 3: 3 × 33.3 ug, total dose 600 ug
[8] = group 4: 3 × 33.3 ug, total dose 100 ug
[9] = group 5: 6 × 16.5 ug, total dose 100 ug

In the case of poly I:C [P(I)P(C)], the “IFN-alpha Expression” value (IFN-alpha; PBMC donor D1) is reported as 1498.1 pg/mL, the “IFN-alpha Expression” value (IFN-alpha; PBMC donor D2) is reported as 216.8 pg/mL and the “IFN-alpha Expression” value (IFN-alpha; PBMC donor D3) is reported as 238.8 pg/mL. For the same molecule, the AIM2 transcript level [1] was 0.100 fold-induction relative to HPRT, the IFIT-1 transcript level [1] was 71.914 fold-induction relative to HPRT and the IFNa transcript level [1] was 0.063 fold-induction relative to HPRT. The IFNb transcript level [1] was 1.523 fold-induction relative to HPRT, the IL6 transcript level [1] was 2.8 fold-induction relative to HPRT and the OAS-1 transcript level [1] was 8.628 fold-induction relative to HPRT. For the same molecule, the PKR transcript level [1] was 10.326 fold-induction relative to HPRT, the RIG-I transcript level [1] was 30.0 fold-induction relative to HPRT and the TNFa transcript level [1] was 0.264 fold-induction relative to HPRT. The “TNF-alpha Expression” value (TNF-alpha; PBMC donor D1) was 61.2 pg/mL, the “TNF-alpha Expression” value (TNF-alpha; PBMC donor D2) was 4.4 pg/mL and the “TNF-alpha Expression” value (TNF-alpha; PBMC donor D3) was 69.1 pg/mL. The “IFN-alpha Expression” value ([2]; donor D1, 22 hours) was 130.8 pg/mL, the “TNF-alpha Expression” value ([2]; donor D1, 22 hours) was 765.8 pg/mL and the “IFN-alpha Expression” value ([2]; donor D2, 22 hours) was 297.1 pg/mL. The “TNF-alpha Expression” value ([2]; donor D2, 22 hours) was 2362.7 pg/mL, the “IFN-alpha Expression” value ([2]; donor D3, 22 hours) was 585.2 pg/mL and the “TNF-alpha Expression” value ([2]; donor D3, 22 hours) was 420.4 pg/mL.

B1: G-CSF unmodified: unmodified G-CSF mRNA SEQ ID NO 6, Cap1 (nucleic acid, listed as Homo sapiens)
chain: GGGAAAUAAGAGAGAAAAGAAGAGUAAGAAGAAAUAUAAGAGCCACCAUGGCCGGUCCCGCGACCCAAAGCCCCAUGAAACUUAUGGCCCUGCAGUUGCUGCUUUGGCACUCGGCCCUCUGGACAGUCCAAGAAGCGACUCCUCUCGGACCUGCCUCAUCGUUGCCGCAGUCAUUCCUUUUGAAGUGUCUGGAGCAGGUGCGAAAGAUUCAGGGCGAUGGAGCCGCACUCCAAGAGAAGCUCUGCGCGACAUACAAACUUUGCCAUCCCGAGGAGCUCGUACUGCUCGGGCACAGCUUGGGGAUUCCCUGGGCUCCUCUCUCGUCCUGUCCGUCGCAGGCUUUGCAGUUGGCAGGGUGCCUUUCCCAGCUCCACUCCGGUUUGUUCUUGUAUCAGGGACUGCUGCAAGCCCUUGAGGGAAUCUCGCCAGAAUUGGGCCCGACGCUGGACACGUUGCAGCUCGACGUGGCGGAUUUCGCAACAACCAUCUGGCAGCAGAUGGAGGAACUGGGGAUGGCACCCGCGCUGCAGCCCACGCAGGGGGCAAUGCCGGCCUUUGCGUCCGCGUUUCAGCGCAGGGCGGGUGGAGUCCUCGUAGCGAGCCACCUUCAAUCAUUUUUGGAAGUCUCGUACCGGGUGCUGAGACAUCUUGCGCAGCCGUGAAGCGCUGCCUUCUGCGGGGCUUGCCUUCUGGCCAUGCCCUUCUUCUCUCCCUUGCACCUGUACCUCUUGGUCUUUGAAUAAAGCCUGAGUAGGAAG
modifications: Cap1
For B1, the “stable out to” value ([3]; stored at 25° C.) was 48 h, the “stable out to” value ([3]; stored at 37° C.) was 6 h and the “stable out to” value ([3]; stored at 50° C.) was 2 h.

B2: Human EPO mmRNA (nucleic acid, listed as Homo sapiens)
sense: GGGAAAUAAGAGAGAAAAGAAGAGUAAGAAGAAAUAUAAGAGCCACCAUGGGAGUGCACGAGUGUCCCGCGUGGUUGUGGUUGCUGCUGUCGCUCUUGAGCCUCCCACUGGGACUGCCUGUGCUGGGGGCACCACCCAGAUUGAUCUGCGACUCACGGGUACUUGAGAGGUACCUUCUUGAAGCCAAAGAAGCCGAAAACAUCACAACCGGAUGCGCCGAGCACUGCUCCCUCAAUGAGAACAUUACUGUACCGGAUACAAAGGUCAAUUUCUAUGCAUGGAAGAGAAUGGAAGUAGGACAGCAGGCCGUCGAAGUGUGGCAGGGGCUCGCGCUUUUGUCGGAGGCGGUGUUGCGGGGUCAGGCCCUCCUCGUCAACUCAUCACAGCCGUGGGAGCCCCUCCAACUUCAUGUCGAUAAAGCGGUGUCGGGGCUCCGCAGCUUGACGACGUUGCUUCGGGCUCUGGGCGCACAAAAGGAGGCUAUUUCGCCGCCUGACGCGGCCUCCGCGGCACCCCUCCGAACGAUCACCGCGGACACGUUUAGGAAGCUUUUUAGAGUGUACAGCAAUUUCCUCCGCGGAAAGCUGAAAUUGUAUACUGGUGAAGCGUGUAGGACAGGGGAUCGCUGAUAAGCUGCCUUCUGCGGGGCUUGCCUUCUGGCCAUGCCCUUCUUCUCUCCCUUGCACCUGUACCUCUUGGUCUUUGAAUAAAGCCUGAGUAGGAAG
modifications: 5' Cap1, polyA tail ~160 nt
For B2, the “Dose Splitting Factor” value [4, 5] was 1, the “Polypeptide per unit drug” value [4, 5] was 0.14 pmol/µg and the “Dose Splitting Factor” value [4, 6] was 2. For the same molecule, the “Polypeptide per unit drug” value [4, 6] was 0.28 pmol/µg, the “Dose Splitting Factor” value [4, 7] was 3.3 and the “Polypeptide per unit drug” value [4, 7] was 0.46 pmol/µg. The “Dose Splitting Factor” value [4, 8] was 7.9, the “Polypeptide per unit drug” value [4, 8] was 1.1 pmol/µg and the “Dose Splitting Factor” value [4, 9] was 9.3. For the same molecule, the “Polypeptide per unit drug” value [4, 9] was 1.3 pmol/µg.

B3: VEGF-A: modified mRNA VEGF-A SEQ ID NO 19, Cap1, fully modified with 5-methylcytosine and pseudouridine, complexed with Lipofectamine2000 (nucleic acid, listed as Homo sapiens)
chain: GGGAAAUAAGAGAGAAAAGAAGAGUAAGAAGAAAUAUAAGAGCCACCAUGAACUUUCUCUUGUCAUGGGUGCACUGGAGCCUUGCGCUGCUGCUGUAUCUUCAUCACGCUAAGUGGAGCCAGGCCGCACCCAUGGCGGAGGGUGGCGGACAGAAUCACCACGAAGUAGUCAAAUUCAUGGACGUGUACCAGAGGUCGUAUUGCCAUCCGAUUGAAACUCUUGUGGAUAUCUUUCAAGAAUACCCCGAUGAAAUCGAGUACAUUUUCAAACCGUCGUGUGUCCCUCUCAUGAGGUGCGGGGGAUGCUGCAAUGAUGAAGGGUUGGAGUGUGUCCCCACGGAGGAGUCGAAUAUCACAAUGCAAAUCAUGCGCAUCAAACCACAUCAGGGUCAGCAUAUUGGAGAGAUGUCCUUUCUCCAGCACAACAAAUGUGAGUGUAGACCGAAGAAGGACCGAGCCCGACAGGAAAACCCAUGCGGACCGUGCUCCGAGCGGCGCAAACACUUGUUCGUACAAGACCCCCAGACAUGCAAGUGCUCAUGUAAGAAUACCGAUUCGCGGUGUAAGGCGAGACAGCUGGAAUUGAACGAGCGCACGUGUAGGUGCGACAAGCCUAGACGGUGAGCUGCCUUCUGCGGGGCUUGCCUUCUGGCCAUGCCCUUCUUCUCUCCCUUGCACCUGUACCUCUUGGUCUUUGAAUAAAGCCUGAGUAGGAAG
modifications: Cap1, polyA tail, 5mC/pseudoU, Lipofectamine2000 complex
In the case of B3, the Protein (HEK293 cells; 2 pg transfected) is reported as 0 pg/mL, the Protein (HEK293 cells; 10 pg transfected) is reported as 0 pg/mL and the Protein (HEK293 cells; 39 pg transfected) is reported as 0 pg/mL. For the same molecule, the Protein (HEK293 cells; 610 fg transfected) was 0 pg/mL.

Source: patent US20200164038A1, “MODIFIED NUCLEOSIDE, NUCLEOTIDE, AND NUCLEIC ACID COMPOSITIONS” (ModernaTX, Inc., priority 2011, published 2020)
